According to US20130096092A1, “THIOETHER PRODRUG COMPOSITIONS AS ANTI-HIV AND ANTI-RETROVIRAL AGENTS” (Health and Human Services, priority 2010, published 2013):
Like-named read-outs stand apart in the source and are kept apart here.

Experiments:
HIVBaL = assay: XTT cytoprotection assay, monocyte-macrophages infected with HIVBaL; assay type: cell-based, HIV; settings: for EC50: monocyte-macrophages infected with HIVBaL, XTT
Method: (§1) The HIV cytoprotection assay has been previously described in Weislow, O, S. et al., J. Natl. Cancer Inst. 81, 577-86 (1989); Rice, W. G. et al., Antimicrob. Agents Chemother. 41, 419-26 (1997), and Rice, W. G. et al., Proc. Natl. Acad. Sci. USA 90, 9721-4 (1993). CEM-SS cells infected with HIV-1IIIB or monocyte-macrophages infected with HIVBaL were incubated with the compound for 6 days and antiviral activity determined by measurement of cell survival (cytoprotection) using XTT (2,3-bis(2-methoxy-4-nitro-5-sulfophenyl)-5-[(phenylamino)carbonyl]-2H-tetrazolium hydroxide) dye reduction. AZT was used as a positive control for all assays with each assay performed in duplicate with triplicate determinations per condition. Compound toxicity was measured the same way in uninfected CEM-SS cells. Effective antiviral concentrations providing 50% cytoprotection (EC50) and cellular growth inhibitory concentrations causing 50% cytotoxicity (IC50) were calculated.
Three compounds were assayed for antiviral activity using the XTT cytoprotection assay in CEM-SS cells infected with HIV-1IIIB and in monocyte-macrophages infected with HIVBaL and assayed for virucidal activity. The compounds are compound 7a (invention), 8 (comparative), and 7f (comparative). The structure of compound 8 is as follows:
(§2) Four compounds along with a positive control were assayed for antiviral activity using the XTT cytoprotection assay as described in Example 4. The cells used were CEM-SS cells infected with HIV-1RF, monocyte-macrophages infected with HIVBaL, and peripheral blood mononuclear cells (PBMC) infected with HIV-1HT/92/599. The compounds are compound 8 (comparative), 7a (invention), 10 (invention), 11 (invention), and 12 (invention).

HIV-1RF = assay: XTT cytoprotection assay, CEM-SS cells infected with HIV-1RF; assay type: cell-based; settings: Human immunodeficiency virus 1, Table 2, read-out: EC50 (50% cytoprotection), CEM-SS cells
Method: as §1, §2

HIV-1IIIB [1] = assay: XTT cytoprotection assay, CEM-SS cells infected with HIV-1IIIB; assay type: cell-based; settings: Human immunodeficiency virus 1, 144 h, Table 1, 6 days, read-out: EC50 (50% cytoprotection), CEM-SS cells
Method: as §1
Three compounds were assayed for antiviral activity using the XTT cytoprotection assay in CEM-SS cells infected with HIV-1IIIB and in monocyte-macrophages infected with HIVBaL and assayed for virucidal activity. The compounds are compound 7a (invention), 8 (comparative), and 7f (comparative).

HIV-1IIIB [2] = assay: Cell-free virus inactivation (virucidal) assay; assay type: cell-based; settings: for EC50: Human immunodeficiency virus 1, Table 1, HIV-1IIIB incubated with compound 2 h at 37° C., then added to CEM-SS cells
Method: Cell-free virus inactivation assays were performed as previously described in Song, Y. et al., Bioorg. Med. Chem. 10, 1263-73 (2002). Briefly, HIV-1IIIB was incubated with three concentrations of each compound for 2 h at 37° C. and then pelleted at 4° C. for 90 minutes at 18,000×g. Following several washes with DPBS to remove unbound compound, the virus was resuspended in cell culture media and added to CEM-SS cells at a titer to yield 85-90% cell killing at day 6 post-infection.

[3] = Stability in vaginal fluid simulant (RP-HPLC); assay type: physicochemical; settings: 400 μM; 25° C., 30 days; FIG. 6; compared with compound 8
Method: The final concentration of the compounds was 400 μM. The samples were incubated at 25° C. over the course of 30 days and the amount of intact compound was measured over time using RP-HPLC. […] The results are illustrated in FIG. 6.

HIV-1HT/92/599 = assay: XTT cytoprotection assay, PBMC infected with HIV-1HT/92/599; assay type: cell-based; settings: Human immunodeficiency virus 1; Table 2; PBMC infected with HIV-1HT/92/599, XTT; read-out: EC50 (50% cytoprotection), PBMC
Method: as §1, §2

[4] = pH stability in buffers (RP-HPLC); assay type: physicochemical; settings: 250 μM; pH 5.0, 7.0, 9.0 buffers; 25° C., 30 days; FIG. 5
Method: This example illustrates the pH stability of compound 7a. Compound 7a was dissolved in DMSO and diluted into the 100 mM sodium acetate buffer at pH 5.0 (shown in FIG. 5 as diamonds), 100 mM sodium phosphate buffer at pH 7.0 (shown in FIG. 5 as circles), and 100 mM Tris-HCl buffer at pH 9.0 (shown in FIG. 5 as squares) at a final compound concentration of 250 μM. The samples were incubated at 25° C. over the course of 30 days and the amount of intact compound was measured over time using RP-HPLC. The results are illustrated in FIG. 5.

[5] = Compound toxicity in monocyte-macrophages; assay type: cell-based; settings: human, monocyte-macrophages; Table 1; read-out: TC50, Monocytes-macrophages
monocyte-macrophages = assay: Compound toxicity in monocyte-macrophages; assay type: cell-based; settings: Table 2; read-out: TC50, Monocyte/Macrophage
[6] = Compound toxicity in PBMC; assay type: cell-based; settings: human, peripheral blood mononuclear cells (PBMC); Table 2; read-out: TC50, PBMC
Method: as §1, §2

[7] = Human plasma stability (RP-HPLC); assay type: in vitro ADME; settings: 20 μM in 50% human plasma in PBS, 37° C., 1 hour; FIG. 7
Method: Compound 8 (comparative), compound 7a (invention), compound 10 (invention), compound 11 (invention), and compound 12 (invention) were dissolved in DMSO and diluted into 50% human plasma in PBS buffer at a final concentration of 20 μM. The samples were incubated at 37° C. for 1 hour and the amount of intact compound measured using RP-HPLC. The results are illustrated in FIG. 7.

[8] = Compound toxicity by XTT in uninfected CEM-SS cells; assay type: cell-based; settings: human; Table 1; uninfected CEM-SS cells, XTT; read-out: TC50, CEM-SS cells
Method: as §1

CEM-SS cells = assay: as above; assay type: cell-based; settings: Table 2; read-out: TC50, CEM-SS cells
Method: as §1

[9] = Human immunodeficiency virus 1, 144 h, Table 1, 6 days, read-out: EC50 (50% cytoprotection), Monocytes-macrophages
[10] = Human immunodeficiency virus 1, Table 2, read-out: EC50 (50% cytoprotection), Monocyte/Macrophage

Structure (SMILES)	EC50 (HIVBaL; [9]) [µM]	EC50 (HIVBaL; [10]) [µM]	EC50 (HIV-1RF) [µM]	EC50 (HIV-1IIIB [1]) [µM]	EC50 (HIV-1IIIB [2]) [µM]	stability in vaginal fluid simulant, intact compound over time [3]	EC50 (HIV-1HT/92/599) [µM]	pH stability, intact compound over time [4]	CC50 at 6 days [5] [µM]	CC50 (monocyte-macrophages) [µM]	CC50 at 6 days [6] [µM]	stability in human plasma, intact compound [7]	CC50 at 6 days [8] [µM]	CC50 (CEM-SS cells) [µM]	activity in cytoprotection assay against infected monocytes-macrophages (HIVBaL; as compared to compound 7a)	activity in the antiviral assay against HIV-1IIIB (HIV-1IIIB [2]; virucidal assay, as compared to compound 7a)
CC(C)C(=O)Oc1ccc(CSc2ccccc2C(=O)NCCC(N)=O)cc1 [Compound 7a, N-{2-[4-(isopropylcarbonyloxy)benzylthio]benzoyl}-β-alaninamide]	0.6	0.62	0.2	0.2	9.8	significantly more stable	4.06	most stable at acidic pH	> 100	> 100	> 100	did not exhibit stability	> 100	> 100	–	–
NC(=O)CCNC(=O)c1ccccc1SCc1ccccc1 [Compound 7f]	> 100	–	–	34.9	> 100	–	–	–	> 100	–	–	–	> 100	–	inactive	inactive
CC(=O)Sc1ccccc1C(=O)NCCC(N)=O [Compound 8]	2	1.97	0.6	0.6	0.9	–	5.74	–	> 100	> 100	> 100	–	> 100	> 100	–	–
